Data as given in US20250090614A1, “COMPOSITIONS AND METHODS FOR IMPROVING LUNG FUNCTION” (priority 2023, published 2025).

Assays:
Type in all cases: in vivo, mouse
Details in all cases: aged C57BL/6 mice, 25 mg/kg p.o. each substance, 90 days
old C57b1/6 mice = experiment: Minute ventilation by whole-body plethysmography in aged mice
Protocol: The experiments were performed in old C57b1/6 mice (28-30 weeks). Table 1 discloses the groups of mice used for the experimentation. C57BL/6 mice were bred and naturally aged in a pathogen-free colony. Mice were group-housed six per cage for the treatment regimen and maintained on a 12-hr light-dark schedule with ad libitum access to food and water. All experiments were designed according to the principles of animal use for gerontological research (Miller, R. A., & Nadon, N. L. (2000). Principles of animal use for gerontological research. Journals of Gerontology. Series A, Biological Sciences and Medical Sciences, 55, B117-B123) [table] The above test substances were administered to the mice for a period of 90 days. […] The respiratory muscle function in the study animals was assessed by estimating the Tidal Volume, Minute ventilation, Transdiaphragmatic pressure ([…]) and Respiratory rate. […] In the present study, ventilatory parameters were measured in awake mice during eupnoea (spontaneous breathing of room air) using a whole-body plethysmography system. […] Recordings were taken after 10 min of acclimatization and recorded for one hour. Recorded parameters included tidal volume and minute ventilation Minute ventilation-Minute ventilation is the amount of air inhaled or exhaled from a person's lungs in one minute is an important measurement that's related to tidal volume. […]

mTOR = mTOR ELISA in lung tissue homogenate of aged mice
Protocol: The experiments were performed in old C57b1/6 mice (28-30 weeks). Table 1 discloses the groups of mice used for the experimentation. C57BL/6 mice were bred and naturally aged in a pathogen-free colony. Mice were group-housed six per cage for the treatment regimen and maintained on a 12-hr light-dark schedule with ad libitum access to food and water. All experiments were designed according to the principles of animal use for gerontological research (Miller, R. A., & Nadon, N. L. (2000). Principles of animal use for gerontological research. Journals of Gerontology. Series A, Biological Sciences and Medical Sciences, 55, B117-B123) [table] The above test substances were administered to the mice for a period of 90 days. Rapamycin was used as a positive control. After 90 days of administration experiments were performed to assess the respiratory muscle function, anatomical changes, cellular senescence and immunological changes. Activation of AMPK delays senescence. Abnormal autophagy and aging promote each other, and AMPK is an important regulator of this process. AMPK is involved in the transduction of several aging-related signaling pathways. AMPK intervenes in the development of many age-related diseases. […] These events contribute to the pathogenesis of age-related disorders.

Immunoglobulin A (IgA) = experiment: IgA ELISA in bronchoalveolar lavage fluid of aged mice
Protocol: The experiments were performed in old C57b1/6 mice (28-30 weeks). Table 1 discloses the groups of mice used for the experimentation. C57BL/6 mice were bred and naturally aged in a pathogen-free colony. Mice were group-housed six per cage for the treatment regimen and maintained on a 12-hr light-dark schedule with ad libitum access to food and water. All experiments were designed according to the principles of animal use for gerontological research (Miller, R. A., & Nadon, N. L. (2000). Principles of animal use for gerontological research. Journals of Gerontology. Series A, Biological Sciences and Medical Sciences, 55, B117-B123) [table] The above test substances were administered to the mice for a period of 90 days. Rapamycin was used as a positive control. After 90 days of administration experiments were performed to assess the respiratory muscle function, anatomical changes, cellular senescence and immunological changes. Bronchoalveolar lavage (BAL) fluids in healthy older subjects have consistently shown an increased proportion of neutrophils and lower percentage of macrophages compared with younger adults. There is age-associated decline in immunoglobins IgA and IgM. […] Immunoglobulin A (IgA) is the most abundant Ig in mucosac where it plays key roles in host defense against pathogens and in mucosal immunoregulation. […]

O=C(/C=C/c1ccc(O)c(O)c1)O[C@H](Cc1ccc(O)c(O)c1)C(=O)O [Rosmarinic acid]
minute ventilation (old C57b1/6 mice; versus old mice control): increase | minute ventilation, comparison between treatment groups (old C57b1/6 mice; Rapamycin 8 mg/kg p.o. positive control): better improvement than control, and Rapamycin | expression of mTOR (mTOR): decreased | expression of IgA (Immunoglobulin A (IgA)): increased
